A word on the IC50: it is the concentration that inhibits the measured activity by half. The low end stands for higher potency, the high end for lower potency. The term inhibition denotes the share of the control response that was lost under treatment.

Experiment [1] concerns the target SmTGR-U597C (Schistosoma mansoni, UniProt Q962Y6). As to the kind of experiment: X-ray crystallography fragment soaking and co-crystallization. The experiment is classed as binding. As to conditions: crystal structure of SmTGR-U597C, soaking or co-crystallization.
For experiment [2], the target named is T1, SmTGR WT (Schistosoma mansoni, UniProt Q962Y6). As to the kind of experiment: biochemical.
For experiment [3], the target named is T1, SmTGR WT. Put plainly: Steady-state competition experiments versus NADPH. It is filed as biochemical. The settings on record: upon increasing compound concentration from 0 to 3 mM.
Experiment [4] has as its target SmTGR-E330A/D334A (Schistosoma mansoni, UniProt Q962Y6, D334A/E330A). As to the kind of experiment: DTNB assay on SmTGR-E330A/D334A double mutant. The experiment is classed as biochemical. As to conditions: 500 μM compound.
The target of experiment [5] is T2, SmTGR-E337A (Schistosoma mansoni, UniProt Q962Y6, E337A).
T2 sequence (Q962Y6 1-598 E337A): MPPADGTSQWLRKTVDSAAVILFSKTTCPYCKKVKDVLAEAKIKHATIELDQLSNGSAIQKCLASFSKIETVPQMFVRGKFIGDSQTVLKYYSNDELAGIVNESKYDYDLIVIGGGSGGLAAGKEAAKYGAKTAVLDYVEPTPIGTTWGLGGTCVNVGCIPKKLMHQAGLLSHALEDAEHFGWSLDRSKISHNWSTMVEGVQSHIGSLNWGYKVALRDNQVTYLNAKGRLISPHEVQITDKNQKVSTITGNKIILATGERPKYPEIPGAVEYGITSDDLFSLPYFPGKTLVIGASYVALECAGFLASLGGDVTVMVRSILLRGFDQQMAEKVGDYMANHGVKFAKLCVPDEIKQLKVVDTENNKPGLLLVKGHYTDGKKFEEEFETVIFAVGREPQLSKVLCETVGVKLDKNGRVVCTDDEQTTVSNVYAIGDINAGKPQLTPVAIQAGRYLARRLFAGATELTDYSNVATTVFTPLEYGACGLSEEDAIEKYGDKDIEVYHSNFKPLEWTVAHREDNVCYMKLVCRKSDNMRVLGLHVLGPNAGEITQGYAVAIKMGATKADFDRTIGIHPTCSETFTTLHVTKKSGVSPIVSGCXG
Put plainly: biochemical.

As to `COc1nc2ccccc2nc1CCC(=O)O` [Compound 1, 3-(3-methoxyquinoxalin-2-yl)propanoic acid], the Binding site result in experiment [1] is on record as “Site 1 (both insoakingand in co-crystallization experiments)”. Also, the half-inhibitory concentration (IC50) in experiment [2] is more than 3000 µM.

On to `Cc1[nH]c2ccccc2c1CC(=O)O` [Compound 2, 2-methylindole-3-acetic acid], for which the Binding site entry in experiment [1] was “Site 1”. Also, in experiment [3], the “decrease of Vmax” value was ~ 10%. For the same compound, in experiment [2], the IC50 was more than 1000 µM.

For the compound `Nc1cccc2nsnc12` [Compound 3, 4-aminopiazthiole], the Binding site result in experiment [1] is “Site 2”. Besides, the “percentage of inhibition at 500 μM” value in experiment [4] turned out to be 48.1 ± 6.2%. Moreover, in experiment [2], the IC50 was approximately 500 µM. The inhibition at 500 µM in experiment [2] (read-out: % of inhibition at 500 μM) was 51.4 ± 4.1%.

`OCc1c[nH]c2ccccc12` [Compound 4, indole-3-carbinol]: the figures for the IC50 in experiment [5] and in experiment [2] were 283 ± 15 µM and 284 ± 12 µM, respectively. The Binding site result in experiment [1] is “Site 2”.

Consider `Cc1ccc2c(O)c(C(=O)O)cnc2n1` [Compound 5, 4-hydroxy-7-methyl-1,8-naphthyridine-3-carboxylic acid], for which the Binding site entry in experiment [1] was “Site 3”.

(Values after article PMC8273128 (ACS infectious diseases, 2021).)
